Results on 34 compounds are retold here after ChEMBL document CHEMBL1149166, “Antimycobacterial agents. 1. Thio analogues of purine” (J Med Chem, 2004).

The subject of assay [1] is Mycobacterium tuberculosis. In words: Inhibitory activity against growth of Mycobacterium tuberculosis H37Rv Strain. The class given is functional.
Assay [2] deals with Mycobacterium tuberculosis. Put plainly: Inhibitory activity against growth of Mycobacterium tuberculosis (Mtb) H37Ra Strain. The class given is functional.
The subject of assay [3] is Mycobacterium tuberculosis. In words: Percent inhibitory activity against Mycobacterium tuberculosis (Mtb) H37Rv Strain at 12.25 ug/mL. The class given is functional.
The test system of assay [4] is Mycobacterium tuberculosis. In words: Percent inhibitory activity against Mycobacterium tuberculosis H37Rv Strain at 6.25 ug/mL. The class given is functional.
The subject of assay [5] is Mycobacterium tuberculosis. In words: Lowest concentration of compound against Mtb H37Ra strain required to inhibit the growth completely. Type of assay: functional.
Assay [6] concerns Mycobacterium tuberculosis. In words: Inhibitory activity against growth of Mycobacterium tuberculosis (Mtb) H37Ra Strain; Activity showed partial growth inhibition representing an estimated 50% or more. The class given is functional.
In assay [7] the test system is Mycobacterium tuberculosis. Put plainly: Concentration effecting […] reduction in the viable cell counts of mouse bone marrow macrophage monolayers containing Mtb Erdman after 7 days compared to controls. To be noted: 168 h. Type of assay: functional, organism-based.
Assay [8] can be described thus: Selective index is […]. Type of assay: functional.
Assay [9] relates to Mycobacterium tuberculosis. Put plainly: Lowest concentration of compound against Mtb H37Ra strain required to inhibit the growth completely; activity range is 2-4. Type of assay: functional.

As a reminder, the MIC90 is the lowest concentration that inhibits either 90% of growth or 90% of the strains tested, depending on the study. A higher MIC90 goes with lower susceptibility. What is called MIC is the least concentration at which growth counts as inhibited. A word on the inhibition: it is how much of the control response was suppressed. By EC50 is commonly meant the concentration at which the effect is half-maximal. Higher therefore signals weaker potency.

Converted amounts (≈) assume the structure as drawn.

In assay [1], `Cc1ccc(Sc2[nH]cnc3ncnc2-3)cc1` gave an MIC90 above 12.5 µg/mL. This compound registered a minimum inhibitory concentration (MIC) in [2] above 12.8 µg/mL. Moreover, the inhibition at 12.25 µg/mL in assay [3] is 65%.

For the compound `CCOC(=O)Cn1cnc2c(SCc3ccccc3F)nc(O)nc21`, the inhibition at 6.25 µg/mL in assay [4] came to 22%. Further, the MIC90 in assay [1] was above 6.25 µg/mL. Further, the MIC in assay [5] came to 4 µg/mL (≈ 11 µM).

On to `CCOC(=O)Cn1cnc2c(Sc3ccc4ccccc4c3)ncnc21`, for which at 6.25 µg/mL the inhibition in assay [4] was 100%. This compound also registered an MIC90 in assay [1] above 6.25 µg/mL. Moreover, the MIC in assay [6] was above 12.8 µg/mL.

`Clc1nc(Sc2ncccn2)c2[nH]cnc2n1` displayed an inhibition at 6.25 µg/mL in assay [4] of 53%. This compound also yielded an MIC90 in assay [1] above 6.25 µg/mL. The compound further gave an MIC in assay [2] above 12.8 µg/mL.

`CCCCCCCCCCSc1ncnc2c1ncn2CC(=O)Oc1ccccc1`: in assay [4], the inhibition at 6.25 µg/mL amounted to 0%. Also, the MIC90 in assay [1] was above 6.25 µg/mL. Moreover, the MIC in assay [2] is above 12.8 µg/mL.

On to `CCCCCCCCCCCSc1[nH]cnc2ncnc1-2`, for which 6.25 µg/mL produced 98% inhibition in assay [4]. In addition, the MIC90 in assay [1] was found to be 3.13 µg/mL (≈ 10.2 µM). Besides, the EC50 in assay [7] is 2.54 µg/mL (≈ 8.29 µM). For the same compound, in [2], the MIC was above 12.8 µg/mL.

Turning to `Cc1ccccc1Sc1[nH]c(Cl)nc2ncnc1-2`, the inhibition at 6.25 µg/mL in assay [4] was 72%. For the same compound, the MIC90 in [1] was above 6.25 µg/mL. The compound also showed an MIC in [2] above 12.8 µg/mL.

As to `Oc1nc(SCc2ccccc2F)c2[nH]cnc2n1`, at 6.25 µg/mL the inhibition in [4] was 50%. The same compound gave an MIC90 in assay [1] above 6.25 µg/mL. The compound further came in with an MIC in assay [5] above 8 µg/mL.

As for `Oc1nc(SCc2ccccc2)c2[nH]cnc2n1`, the inhibition at 6.25 µg/mL in assay [4] was determined as 94%. The MIC90 in [1] was above 6.25 µg/mL. In assay [2], this compound registered a minimal inhibitory concentration (MIC) above 12.8 µg/mL.

In the case of `Clc1ccc(Sc2[nH]cnc3ncnc2-3)cc1`, in [1], the MIC90 is above 12.5 µg/mL. This compound yielded an MIC in [2] above 12.8 µg/mL. The compound also showed an inhibition at 12.25 µg/mL in assay [3] of 78%.

`c1ccc(CSc2ncnc3[nH]cnc23)cc1`: the MIC90 in assay [1] was above 12.5 µg/mL. In addition, in assay [2], the MIC is above 12.8 µg/mL. In [3], this compound came in with an inhibition at 12.25 µg/mL of 52%.

In assay [4], `Oc1nc(SCc2ccc(F)cc2C(F)(F)F)c2[nH]cnc2n1` displayed an inhibition at 6.25 µg/mL of 50%. This compound also showed an MIC in assay [2] above 16 µg/mL.

Turning to `Oc1nc(SCc2ccc(F)cc2)c2[nH]cnc2n1`, the inhibition at 6.25 µg/mL in assay [4] was determined as 52%. In [1], this compound registered an MIC90 above 6.25 µg/mL. Moreover, in assay [6], the MIC is above 12.8 µg/mL.

Compound `CCOC(=O)Cn1cnc2c(Sc3cccc(C)c3)ncnc21` returned an inhibition at 6.25 µg/mL in [4] of 0%. Also, the MIC90 in assay [1] is above 6.25 µg/mL. For the same compound, in assay [6], the MIC was above 12.8 µg/mL.

Regarding `Oc1nc(SCc2ccc(Cl)cc2)c2[nH]cnc2n1`, the inhibition at 6.25 µg/mL in [4] is 55%. The compound further came in with an MIC90 in [1] above 6.25 µg/mL. Further, the MIC in assay [6] was above 12.8 µg/mL.

`CCOC(=O)Cn1cnc2c(SCc3cccc([N+](=O)[O-])c3C)nc(O)nc21` came in with an inhibition at 6.25 µg/mL in assay [4] of 0%. In assay [1], this compound registered an MIC90 above 6.25 µg/mL. The same compound had an MIC in [2] of 16 µg/mL (≈ 39.7 µM).

In turn, `c1ccc2cc(Sc3[nH]cnc4ncnc3-4)ccc2c1` registered an MIC90 in [1] above 12.5 µg/mL. The MIC in [6] is above 12.8 µg/mL. For the same compound, the inhibition at 12.25 µg/mL in assay [3] is 69%.

As for `CCCCCCCCCCSc1ncnc2c1ncn2CC(N)=O`, the inhibition at 6.25 µg/mL in [4] is 0%. The MIC90 in assay [1] was above 6.25 µg/mL. In assay [2], this compound gave an MIC of 32 µg/mL (≈ 91.6 µM).

`CCCCCCCCCCSc1[nH]c(Cl)nc2ncnc1-2` came in with an inhibition at 6.25 µg/mL in assay [4] of 86%. The same compound yielded an MIC90 in assay [1] above 6.25 µg/mL. The compound also gave an MIC in [2] above 12.8 µg/mL.

`CCCCCCCCCCSc1ncnc2c1ncn2CC(=O)OCc1ccccc1` showed an inhibition at 6.25 µg/mL in assay [4] of 0%. In addition, the MIC90 in [1] was above 6.25 µg/mL. In assay [2], the MIC was above 12.8 µg/mL.

The compound `CCCCCCCCCCCCSc1ncnc2c1ncn2CC(=O)OCC` had an inhibition at 6.25 µg/mL in [4] of 98%. The same compound registered an MIC90 in [1] of 0.78 µg/mL (≈ 1.92 µM). Also, in assay [5], the MIC came to 8 µg/mL (≈ 19.7 µM). Moreover, the SI in assay [8] is above 12.8.

In assay [4], `CCOC(=O)Cn1cnc2c(SCc3ccccc3)nc(O)nc21` yielded an inhibition at 6.25 µg/mL of 25%. This compound also came in with an MIC90 in [1] above 6.25 µg/mL. Inhibition of growth in assay [5] (MIC) required 4 µg/mL (≈ 11.6 µM).

For `O=[N+]([O-])c1ccccc1CSc1nc(O)nc2nc[nH]c12`, the inhibition at 6.25 µg/mL in assay [4] turned out to be 61%. This compound also registered an MIC90 in [1] above 6.25 µg/mL. Moreover, in [2], the MIC is above 16 µg/mL.

Turning to `Clc1nc(Sc2cccc3ccccc23)c2[nH]cnc2n1`, the inhibition at 6.25 µg/mL in assay [4] came out at 56%. In assay [1], this compound came in with an MIC90 above 6.25 µg/mL. The compound further displayed an MIC in assay [2] above 12.8 µg/mL.

With `CC[C@@H](CO)NCCN[C@@H](CC)CO` [ETHAMBUTOL], the minimum inhibitory concentration (MIC) in [9] amounted to 4 µg/mL (≈ 19.6 µM).

For `CCOC(=O)Cn1cnc2c(Sc3ccc(C)cc3)ncnc21`, testing at 6.25 µg/mL in assay [4] gave an inhibition of 99%. Besides, in [1], the MIC90 was above 6.25 µg/mL. The same compound gave an MIC in [2] above 12.8 µg/mL.

Consider `CCOC(=O)Cn1cnc2c(SCc3cc(Cl)ccc3F)nc(O)nc21`, for which testing at 6.25 µg/mL in [4] gave an inhibition of 17%. Besides, the MIC90 in assay [1] was above 6.25 µg/mL. In assay [5], this compound had an MIC of 4 µg/mL (≈ 10.1 µM).

For `Cc1cccc(Sc2[nH]cnc3ncnc2-3)c1`, the MIC90 in [1] is above 12.5 µg/mL. The same compound came in with an MIC in assay [2] above 12.8 µg/mL. Further, in assay [3], at 12.25 µg/mL the inhibition was 99%.

Turning to `c1ccc2nc(Sc3[nH]cnc4ncnc3-4)ccc2c1`, the MIC90 in assay [1] is above 12.5 µg/mL. Further, the MIC in [2] was above 12.8 µg/mL. Moreover, 12.25 µg/mL produced 69% inhibition in assay [3].

In assay [4], `CCCCCCCCCCSc1ncnc2c1ncn2CC(=O)OCC` registered an inhibition at 6.25 µg/mL of 100%. Further, the MIC90 in assay [1] was 1.56 µg/mL (≈ 4.12 µM). Besides, the MIC in assay [6] was above 12.8 µg/mL. Besides, the SI in [8] is above 40.

Take `Oc1nc(SCc2ccccc2Cl)c2[nH]cnc2n1`: in assay [4], the inhibition at 6.25 µg/mL turned out to be 62%. Further, the MIC90 in assay [1] is above 6.25 µg/mL. In addition, the MIC in [2] is above 16 µg/mL.

With `COc1cccc(CSc2[nH]c(O)nc3ncnc2-3)c1`, the inhibition at 6.25 µg/mL in [4] worked out at 59%. Moreover, the MIC90 in [1] was above 6.25 µg/mL. For the same compound, in [2], the MIC is above 16 µg/mL.

In the case of `CCOC(=O)Cn1cnc2c(Sc3ccc(Cl)cc3)ncnc21`, the inhibition at 6.25 µg/mL in assay [4] worked out at 99%. Also, the MIC90 in assay [1] is above 6.25 µg/mL. The same compound showed an MIC in [2] of 32 µg/mL (≈ 91.7 µM).

For `CCCCCCCCCCSc1ncnc2c1ncn2CC(=O)OC(C)(C)C`, 6.25 µg/mL produced 99% inhibition in [4]. For the same compound, the MIC90 in assay [1] came out at 3.13 µg/mL (≈ 7.7 µM). Besides, the MIC in assay [2] turned out to be 16 µg/mL (≈ 39.4 µM). Moreover, the SI in assay [8] is above 3.19.
